Key:
[1] = target: T1, Poly(ADP-Ribose)-Polymerase enzyme (PARP) (Homo sapiens, UniProt P09874); assay: Fluorescence polarization PARP inhibition assay (Texas Red-labeled NAD+ tracer, histone, DNA); type: biochemical; settings: known inhibitor of PARP used as control compound; inhibition curve in FIG. 3
T1 construct: IC50
Source text: (§1) The transfer of Texas Red-ADP ribose to protein substrates (histone and PARP itself) can be monitored through the rotational speed of the fluorescence tracer by the fluorescence polarization method. The assay measures the ability of the test compounds to inhibit the enzyme to transfer fluorescence labeled ADP to protein substrates.
(§2) A PARP baculovirus which encodes the amino acid sequence of FIG. 6 (SEQ ID NO: 1), was used to infect sf(9) cells. After PARP was expressed, it was partially purified by 40-70% ammonia sulfate cuts, and then re-suspended in TRIS buffer containing 25% (v/v) glycerol. […]
(§3) After incubation, this mixture and the control mixture were illuminated with plane polarized light having a wavelength of 590 nm, and the fluorescence polarization of the mixture and the control mixture were measured using a fluorescence filter set with an excitation wavelength of 590 nm, and an emission wavelength of 620 nm. The measurements were made with a fluorescence polarization plate reader in fluorescence polarization (FP) mode. These two measurements were then compared to determine whether the fluorescence polarization measurement of the mixture containing the compound or agent is less than that of the control. […]

[2] = target: Poly(ADP-Ribose)-Polymerase enzyme (PARP) (Homo sapiens, UniProt P09874, E70Q); assay: as above; type: biochemical; settings: standard (control) inhibitor of PARP, value given in materials table
Sequence of Poly(ADP-Ribose)-Polymerase enzyme (PARP) (Homo sapiens, UniProt P09874, E70Q) (P09874 whole entry E70Q): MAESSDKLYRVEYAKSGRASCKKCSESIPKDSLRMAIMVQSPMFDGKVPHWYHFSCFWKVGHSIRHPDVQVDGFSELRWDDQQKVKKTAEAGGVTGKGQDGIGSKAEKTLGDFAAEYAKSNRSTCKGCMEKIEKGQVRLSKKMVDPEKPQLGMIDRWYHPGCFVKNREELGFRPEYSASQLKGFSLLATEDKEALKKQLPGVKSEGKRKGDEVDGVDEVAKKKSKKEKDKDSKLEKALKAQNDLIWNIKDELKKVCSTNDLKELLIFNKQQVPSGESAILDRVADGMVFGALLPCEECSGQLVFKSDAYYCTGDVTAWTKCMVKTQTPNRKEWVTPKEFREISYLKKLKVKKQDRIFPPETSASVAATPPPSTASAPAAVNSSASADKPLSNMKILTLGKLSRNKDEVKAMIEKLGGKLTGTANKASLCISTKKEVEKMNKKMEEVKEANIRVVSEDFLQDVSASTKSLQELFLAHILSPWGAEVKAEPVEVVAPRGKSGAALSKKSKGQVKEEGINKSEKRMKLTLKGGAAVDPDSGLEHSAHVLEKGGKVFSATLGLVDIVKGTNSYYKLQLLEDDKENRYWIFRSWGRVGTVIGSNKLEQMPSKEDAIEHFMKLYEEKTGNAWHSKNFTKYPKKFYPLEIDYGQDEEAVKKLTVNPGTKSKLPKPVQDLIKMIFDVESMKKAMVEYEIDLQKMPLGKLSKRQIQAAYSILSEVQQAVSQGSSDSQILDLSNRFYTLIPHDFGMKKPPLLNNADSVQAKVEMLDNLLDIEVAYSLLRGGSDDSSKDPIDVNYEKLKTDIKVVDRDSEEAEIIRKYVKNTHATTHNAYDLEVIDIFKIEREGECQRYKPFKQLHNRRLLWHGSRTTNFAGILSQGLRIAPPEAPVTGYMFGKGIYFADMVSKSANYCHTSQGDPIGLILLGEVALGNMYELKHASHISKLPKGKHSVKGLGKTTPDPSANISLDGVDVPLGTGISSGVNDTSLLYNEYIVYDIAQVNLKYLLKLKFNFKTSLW
Source text: as §1, §2, §3

T1 sequence (P09874 whole entry): as the sequence (P09874 whole entry E70Q) above, with Q70E counted along it

Oc1cccc2c(O)nccc12 [1,5-isoquinoline-diol]
IC50 [1]: 379 nM

O=c1[nH]c2ccccc2c2ccccc12 [6(5H)-phenanthridinone]
IC50 [2]: 200 nM

From patent US20040115710A1, “Method for assaying compounds that decrease the activity of poly (ADP-ribose)-Polymerase (PARP)” (Aventis Pharmaceuticals Inc., priority 2002, published 2004)
